Literature values as cited in patent US20130143970A1, “MEDICINAL PREPARATION PARTICULARLY FOR THE TREATMENT OF SLIPPED DISCS HERNIAS” (priority 2002, published 2013).

Conditions: intradiscal injections

CCO [absolute alcohol, ethanol]
treatment results in lumbar discal hernias: very promising results
